Test results: ChEMBL document CHEMBL3046510, “Synthesis and Fungicidal Activities of 4,5-Dihydro-7H-pyrano[3,4-c]isoxazole Derivatives” (1999)

What was measured:
Type in all cases: functional
Rhizoctonia solani = assay: Fungicidal activity against Rhizoctonia solani infected on foliar spray based compound pre-treated third-leaf stage rice plants assessed as rice sheath blight disease control level at 250 ppm measured 5 days post fungal exposure relative to untreated control
Phytophthora infestans = assay: Fungicidal activity against Phytophthora infestans zoosporangia infected on foliar spray based compound pre-treated 14 days old tomato plants assessed as tomato late blight disease control level at 250 ppm measured 4 days post fungal exposure relative to untreated control
Botrytis cinerea = assay: Fungicidal activity against Botryotinia fuckeliana infected foliar spray based compound pre-treated first-leaf stage cucumber plants assessed as cucumber gray mold disease control level at 250 ppm measured 4 to 5 days post fungal exposure relative to untreated control
Blumeria graminis = assay: Fungicidal activity against Blumeria graminis infected on foliar spray based compound pre-treated first-leaf stage 7 day old barley plants assessed as barley powdery mildew disease control level at 250 ppm measured 7 days post fungal exposure relative to untreated control
Puccinia recondita [1] = assay: Fungicidal activity against Puccinia recondita infected foliar spray based compound pre-treated first-leaf stage wheat plants assessed as wheat leaf rust disease control level at 250 ppm measured 10 days post fungal exposure relative to untreated control
Puccinia recondita [2] = assay: Fungicidal activity against Puccinia recondita infected foliar spray based compound pre-treated first-leaf stage wheat plants assessed as wheat leaf rust disease control level at 2 ppm measured 10 days post fungal exposure relative to untreated control
Puccinia recondita [3] = assay: Fungicidal activity against Puccinia recondita infected foliar spray based compound pre-treated first-leaf stage wheat plants assessed as wheat leaf rust disease control level at 10 ppm measured 10 days post fungal exposure relative to untreated control
Puccinia recondita [4] = assay: Fungicidal activity against Puccinia recondita infected foliar spray based compound pre-treated first-leaf stage wheat plants assessed as wheat leaf rust disease control level at 50 ppm measured 10 days post fungal exposure relative to untreated control

Compound: Clc1ccccc1C1OCCc2c1noc2COC1CCCCO1 (stereo not drawn)
- Activity (Rhizoctonia solani): 47%
- Activity (Phytophthora infestans): 0%
- Activity (Botrytis cinerea): 0%
- Activity (Blumeria graminis): 16%
- Activity (Puccinia recondita [1]): 86%

Compound: OCc1onc2c1CCOC2c1ccccc1Cl (stereo not drawn)
- Activity (Rhizoctonia solani): 0%
- Activity (Phytophthora infestans): 0%
- Activity (Botrytis cinerea): 0%
- Activity (Blumeria graminis): 0%
- Activity (Puccinia recondita [1]): 10%

Compound: O=Cc1onc2c1CCOC2c1ccccc1Cl (stereo not drawn)
- Activity (Rhizoctonia solani): 17%
- Activity (Phytophthora infestans): 21%
- Activity (Botrytis cinerea): 0%
- Activity (Blumeria graminis): 83%
- Activity (Puccinia recondita [1]): 53%

Compound: Clc1ccccc1C1OCCc2c1noc2CBr (stereo not drawn)
- Activity (Rhizoctonia solani): 41%
- Activity (Phytophthora infestans): 7%
- Activity (Botrytis cinerea): 52%
- Activity (Blumeria graminis): 16%
- Activity (Puccinia recondita [1]): 97%

Compound: ON=Cc1onc2c1CCOC2c1ccccc1Cl (stereo not drawn)
- Activity (Rhizoctonia solani): 52%
- Activity (Phytophthora infestans): 42%
- Activity (Botrytis cinerea): 5%
- Activity (Blumeria graminis): 0%
- Activity (Puccinia recondita [1]): 0%

Compound: CON=Cc1onc2c1CCOC2c1ccccc1Cl (stereo not drawn)
- Activity (Rhizoctonia solani): 29%
- Activity (Phytophthora infestans): 50%
- Activity (Botrytis cinerea): 0%
- Activity (Blumeria graminis): 41%
- Activity (Puccinia recondita [1]): 0%

Compound: Clc1ccc(C2OCCc3c2noc3COC2CCCCO2)cc1 (stereo not drawn)
- Activity (Rhizoctonia solani): 0%
- Activity (Phytophthora infestans): 9%
- Activity (Botrytis cinerea): 0%
- Activity (Blumeria graminis): 0%
- Activity (Puccinia recondita [1]): 0%

Compound: OCc1onc2c1CCOC2c1ccc(Cl)cc1 (stereo not drawn)
- Activity (Rhizoctonia solani): 0%
- Activity (Phytophthora infestans): 2%
- Activity (Botrytis cinerea): 0%
- Activity (Blumeria graminis): 3%
- Activity (Puccinia recondita [1]): 0%

Compound: O=Cc1onc2c1CCOC2c1ccc(Cl)cc1 (stereo not drawn)
- Activity (Rhizoctonia solani): 0%
- Activity (Phytophthora infestans): 19%
- Activity (Botrytis cinerea): 30%
- Activity (Blumeria graminis): 0%
- Activity (Puccinia recondita [1]): 0%

Compound: Clc1ccc(C2OCCc3c2noc3CBr)cc1 (stereo not drawn)
- Activity (Rhizoctonia solani): 0%
- Activity (Phytophthora infestans): 22%
- Activity (Botrytis cinerea): 0%
- Activity (Puccinia recondita [2]): 50%
- Activity (Puccinia recondita [3]): 53%
- Activity (Blumeria graminis): 50%
- Activity (Puccinia recondita [4]): 90%
- Activity (Puccinia recondita [1]): 100%

Compound: CCON=Cc1onc2c1CCOC2c1ccccc1Cl (mixture of isomers)
- Activity (Rhizoctonia solani): 64%
- Activity (Phytophthora infestans): 78%
- Activity (Botrytis cinerea): 5%
- Activity (Blumeria graminis): 91%
- Activity (Puccinia recondita [1]): 76%

Compound: C=CCON=Cc1onc2c1CCOC2c1ccccc1Cl (mixture of isomers)
- Activity (Rhizoctonia solani): 17%
- Activity (Phytophthora infestans): 14%
- Activity (Botrytis cinerea): 0%
- Activity (Blumeria graminis): 80%
- Activity (Puccinia recondita [1]): 46%

Compound: ON=Cc1onc2c1CCOC2c1ccc(Cl)cc1 (mixture of isomers)
- Activity (Rhizoctonia solani): 45%
- Activity (Phytophthora infestans): 10%
- Activity (Botrytis cinerea): 0%
- Activity (Blumeria graminis): 0%
- Activity (Puccinia recondita [1]): 86%

Compound: CON=Cc1onc2c1CCOC2c1ccc(Cl)cc1 (mixture of isomers)
- Activity (Rhizoctonia solani): 65%
- Activity (Phytophthora infestans): 0%
- Activity (Botrytis cinerea): 28%
- Activity (Blumeria graminis): 96%
- Activity (Puccinia recondita [1]): 12%

Compound: CCON=Cc1onc2c1CCOC2c1ccc(Cl)cc1 (mixture of isomers)
- Activity (Rhizoctonia solani): 55%
- Activity (Phytophthora infestans): 14%
- Activity (Botrytis cinerea): 10%
- Activity (Blumeria graminis): 81%
- Activity (Puccinia recondita [1]): 52%

Compound: C=CCON=Cc1onc2c1CCOC2c1ccc(Cl)cc1 (mixture of isomers)
- Activity (Rhizoctonia solani): 75%
- Activity (Phytophthora infestans): 7%
- Activity (Botrytis cinerea): 10%
- Activity (Blumeria graminis): 100%
- Activity (Puccinia recondita [1]): 96%
